This note sets out measurements from ChEMBL document CHEMBL1139163, “Discovery and initial SAR of 3-(1H-benzo[d]imidazol-2-yl)pyridin-2(1H)-ones as inhibitors of insulin-like growth factor 1-receptor (IGF-1R)” (Bioorg Med Chem Lett, 2007).

Assay [1] addresses Insulin-like growth factor 1 receptor (Homo sapiens, UniProt P08069). The assay can be described thus: Inhibition of human recombinant IGF1 receptor.
The subject of a further assay is HT-29. The assay can be described thus: Cytotoxicity against HT29 cells by MTT assay. It counts as functional, Homo sapiens. A general note: Tetrazolium dyes change colour on reduction, which living cells bring about.

pIC50: −log10 of the molar value.

Insulin-like growth factor 1 receptor, sequence (P08069 31-736 limits assumed): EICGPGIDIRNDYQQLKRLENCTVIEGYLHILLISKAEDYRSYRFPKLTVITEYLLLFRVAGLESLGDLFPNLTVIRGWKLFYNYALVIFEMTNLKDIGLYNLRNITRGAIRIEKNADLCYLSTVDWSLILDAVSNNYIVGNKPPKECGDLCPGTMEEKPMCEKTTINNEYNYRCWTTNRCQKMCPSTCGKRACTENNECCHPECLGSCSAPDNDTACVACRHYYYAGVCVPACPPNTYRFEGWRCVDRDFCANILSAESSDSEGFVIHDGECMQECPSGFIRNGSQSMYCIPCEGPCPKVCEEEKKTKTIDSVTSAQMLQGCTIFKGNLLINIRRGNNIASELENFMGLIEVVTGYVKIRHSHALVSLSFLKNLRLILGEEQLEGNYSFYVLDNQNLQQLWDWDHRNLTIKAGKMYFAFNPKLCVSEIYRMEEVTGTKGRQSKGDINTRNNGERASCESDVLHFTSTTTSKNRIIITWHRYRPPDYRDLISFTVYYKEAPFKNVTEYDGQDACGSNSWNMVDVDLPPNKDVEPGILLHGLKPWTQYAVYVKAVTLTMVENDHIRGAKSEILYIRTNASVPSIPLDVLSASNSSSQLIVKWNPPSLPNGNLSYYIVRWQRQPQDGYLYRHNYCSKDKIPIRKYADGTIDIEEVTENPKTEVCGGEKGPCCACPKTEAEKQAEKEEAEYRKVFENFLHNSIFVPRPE
Insulin-like growth factor 1 receptor, sequence (P08069 741-1367 limits assumed): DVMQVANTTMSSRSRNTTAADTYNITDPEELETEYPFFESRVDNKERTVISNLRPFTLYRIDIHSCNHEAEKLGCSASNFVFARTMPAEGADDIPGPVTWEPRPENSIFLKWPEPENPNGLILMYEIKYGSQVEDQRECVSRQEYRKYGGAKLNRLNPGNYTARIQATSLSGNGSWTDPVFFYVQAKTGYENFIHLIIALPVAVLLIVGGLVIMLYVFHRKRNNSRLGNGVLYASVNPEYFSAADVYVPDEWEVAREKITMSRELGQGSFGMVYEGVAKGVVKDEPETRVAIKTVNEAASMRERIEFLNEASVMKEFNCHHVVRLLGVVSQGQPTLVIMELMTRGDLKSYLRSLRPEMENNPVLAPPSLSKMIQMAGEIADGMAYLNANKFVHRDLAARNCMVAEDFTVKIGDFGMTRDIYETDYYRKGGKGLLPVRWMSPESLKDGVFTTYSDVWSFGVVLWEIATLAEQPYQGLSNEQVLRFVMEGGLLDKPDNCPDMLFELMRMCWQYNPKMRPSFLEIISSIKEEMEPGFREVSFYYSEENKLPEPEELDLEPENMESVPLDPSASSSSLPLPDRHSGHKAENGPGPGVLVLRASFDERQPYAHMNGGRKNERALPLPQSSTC

With `CN(Cc1cc(-n2ccnc2)cc2[nH]c(-c3ccc[nH]c3=O)nc12)c1ccccc1`, the pIC50 (in general, the IC50 on a negative log10 scale, so that one unit is a factor of ten) in assay [1] was under 4.60.
As for `CNCc1cc(-n2ccnc2)cc2nc(-c3ccc[nH]c3=O)[nH]c12`, the pIC50 in assay [1] was under 4.60.
For the compound `COc1ccccc1C[C@@H](CO)Nc1cc[nH]c(=O)c1-c1nc2c(C)cc(-n3ccnc3)cc2[nH]1`, in the assay on HT-29, the Activity was 1.2 µM. Besides, the negative-log IC50 (pIC50) in assay [1] was 6.24.
Turning to `O=c1[nH]cccc1-c1nc2cc(-n3ccnc3)cc(CNCc3cccnc3)c2[nH]1`, in assay [1], the pIC50 is under 4.60.
Consider `Cc1cc(-n2ccnc2)cc2[nH]c(-c3c(N[C@H](CO)Cc4ccc(Cl)cc4)cc[nH]c3=O)nc12`, for which the pIC50 in assay [1] was 5.27.
Turning to `Cc1cc(-n2ccnc2)cc2[nH]c(-c3c(N[C@H](CO)Cc4ccccc4Cl)cc[nH]c3=O)nc12`, in assay [1], the pIC50 is 6.07.
For `Cc1cc(-n2ccnc2)cc2[nH]c(-c3c(NCc4cccs4)cc[nH]c3=O)nc12`, the negative-log IC50 (pIC50) in assay [1] was 5.28.
In turn, `COc1cccc(C[C@@H](CO)Nc2cc[nH]c(=O)c2-c2nc3c(C)cc(-n4ccnc4)cc3[nH]2)c1` yielded an Activity with HT-29 of 1.6 µM. Also, in assay [1], the pIC50 is 6.18.
With `Cc1cc(-n2ccnc2)cc2[nH]c(-c3c(N[C@H](CO)Cc4cccc(Br)c4)cc[nH]c3=O)nc12`, in the assay on HT-29, the Activity turned out to be 1.3 µM. In addition, in assay [1], the pIC50 is 6.23.
As for `Cc1cc(-n2ccnc2)cc2[nH]c(-c3c(N[C@H](CO)Cc4ccccc4OC(F)(F)F)cc[nH]c3=O)nc12`, the pIC50 in assay [1] was 5.89.
As for `Cc1cc(-n2ccnc2)cc2[nH]c(-c3c(NCCc4cccs4)cc[nH]c3=O)nc12`, the pIC50 in assay [1] was 5.68.
As to `O=c1[nH]cccc1-c1nc2c(CN3CCNCC3)cc(-n3ccnc3)cc2[nH]1`, the pIC50 in assay [1] is under 4.60.
`NCc1cc(-n2ccnc2)cc2nc(-c3ccc[nH]c3=O)[nH]c12`: in assay [1], the pIC50 was under 4.60.
Turning to `Cc1cc(-n2ccnc2)cc2[nH]c(-c3c(N[C@H](CO)Cc4ccccc4)cc[nH]c3=O)nc12`, the Activity in the assay on HT-29 worked out at 0.78 µM. Further, in assay [1], the pIC50 is 6.28.
Turning to `Cc1cc(-n2ccnc2)cc2nc(-c3c(NCc4ccco4)cc[nH]c3=O)[nH]c12`, in assay [1], the pIC50 is 5.52.
On to `Cc1cc(-n2ccnc2)cc2[nH]c(-c3c(OCc4ccccn4)cc[nH]c3=O)nc12`, for which the pIC50 in assay [1] is under 4.60.
Turning to `Cc1cc(-n2ccnc2)cc2[nH]c(-c3c(SCc4ccccn4)cc[nH]c3=O)nc12`, the pIC50 in assay [1] is under 4.60.
Regarding `Cc1cc(-n2ccnc2)cc2nc(-c3c(N[C@H](CO)Cc4ccccn4)cc[nH]c3=O)[nH]c12`, in assay [1], the pIC50 is 5.32.
Take `Cc1cc(-n2ccnc2)cc2nc(-c3c(NCc4ccccn4)cc[nH]c3=O)[nH]c12`: in the assay on HT-29, the Activity turned out to be 7.6 µM.
In the case of `COc1ccc(C[C@@H](CO)Nc2cc[nH]c(=O)c2-c2nc3c(C)cc(-n4ccnc4)cc3[nH]2)cc1`, in assay [1], the pIC50 was 5.51.
On to `Cc1cc(-n2ccnc2)cc2[nH]c(-c3c(N[C@H](CO)Cc4cccc([N+](=O)[O-])c4)cc[nH]c3=O)nc12`, for which the pIC50 in assay [1] is 5.48.
For `Cc1cc(-n2ccnc2)cc2nc(-c3c(NCCn4nccn4)cc[nH]c3=O)[nH]c12`, the pIC50 in assay [1] was 5.60.
The same measure, in the same setting: next, `Cc1cc(-n2ccnc2)cc2[nH]c(-c3c(N[C@H](CO)Cc4cccc(C(F)(F)F)c4)cc[nH]c3=O)nc12`: 5.46.
For `Cc1cc(-n2ccnc2)cc2[nH]c(-c3c(NCc4ccncc4)cc[nH]c3=O)nc12`, in assay [1], the pIC50 is under 4.60.
`Cc1cc(-n2ccnc2)cc2[nH]c(-c3c(N[C@H](CO)Cc4ccccc4Br)cc[nH]c3=O)nc12` displayed an Activity with HT-29 of 0.83 µM. In assay [1], the pIC50 was 6.54.
On to `O=c1[nH]cccc1-c1nc2c(CNCc3ccccc3)cc(-n3ccnc3)cc2[nH]1`, for which the negative logarithm of the IC50 (pIC50) in assay [1] was under 4.60.
On the same count and under the same terms, in the case of `Cc1ccccc1C[C@@H](CO)Nc1cc[nH]c(=O)c1-c1nc2c(C)cc(-n3ccnc3)cc2[nH]1` it was 6.28; in that of `Cc1cc(-n2ccnc2)cc2[nH]c(-c3c(N[C@H](CO)Cc4ccc(OC(C)(C)C)cc4)cc[nH]c3=O)nc12`, 5.77.
`Cc1cc(-n2ccnc2)cc2[nH]c(-c3c(N[C@H](CO)Cc4cccc(Cl)c4)cc[nH]c3=O)nc12` gave an Activity in the assay on HT-29 of 1.1 µM. Moreover, the pIC50 in assay [1] was 6.14.
Regarding `Cc1cc(-n2ccnc2)cc2[nH]c(-c3c(N[C@H](CO)Cc4ccccc4C#N)cc[nH]c3=O)nc12`, the pIC50 in assay [1] is 5.66.
Regarding `CCN(Cc1cc(-n2ccnc2)cc2[nH]c(-c3ccc[nH]c3=O)nc12)c1ncc[nH]1`, the pIC50 in assay [1] was 4.89.
`Cc1cc(-n2ccnc2)cc2nc(-c3c(NCc4cccnc4)cc[nH]c3=O)[nH]c12`: the negative-log IC50 (pIC50) in assay [1] was 4.85.
`Cc1cc(-n2ccnc2)cc2[nH]c(-c3c(N[C@H](CO)Cc4cccc(F)c4)cc[nH]c3=O)nc12`: in the assay on HT-29, the Activity was found to be 2.1 µM. For the same compound, in assay [1], the negative logarithm of the IC50 (pIC50) was 6.23.
`Cc1cc(-n2ccnc2)cc2[nH]c(-c3c(N[C@H](CO)Cc4ccc(F)cc4)cc[nH]c3=O)nc12`: in assay [1], the pIC50 was 5.85.
